Test results: US20260153494A1 (AGRICUL TURAL UNIVERSITY OF ATHENS, priority 2023, published 2026)
Values joined by “and” are separate entries in the source; they are usually repeats but may differ in a detail not shown here. Equal entries are not always repeated.

Assays:
[1] = system: sh155 dimer (phi class glutathione S-transferase GSTF mutant derived by DNA shuffling, SEQ ID NO: 2); experiment: Kinetic inhibition analysis with butachlor, dimer sh155; type: biochemical; conditions: constant GSH, variable CDNB
Text: (§1) FIG. 22 (A-J): Kinetic inhibition analysis of the dimer enzyme sh155 (FIG. 22A, 22C, 22E, 22G, 22I) and the hexamer FGGsh155:CB[8] (FIGS. 22B, 22D, 22F, 22H, 22J). A. & B. Lineweaver-Burk plots for the inhibition of the enzymes by different concentrations of butachlor, at constant concentration of GSH and variable concentration of CDNB. C. & D. Secondary (derivative) graph. The slope values were derived from the Lineweaver-Burk graphs (A) & (B). The intersection point with the x axis corresponds to Ki. E. & F. Secondary (derivative) graph where the data are derived from the Lineweaver-Burk graphs (A) & (B). The intersection point with the x axis corresponds to K. G. & H. Lineweaver-Burk plots for the inhibition of the enzymes by different concentrations of butachlor, at constant concentration of CDNB and variable concentration of GSH. […]. Secondary (derivative) graph. The slope values were derived from the Lineweaver-Burk graphs […], and the intersection point with the x axis corresponds to Ki.
(§2) Kinetic analysis in presence of butachlor aimed to characterize of the type of inhibition, thus the binding site of the inhibitor, as well as to identify possible differences in kinetic behavior between the GST dimer form (sh155) and the hexamer FGGsh155:CB[8] that was used in the immobilization. […]

[2] = system: Immobilized FGGsh155:CB[8] hexamer (GSTF mutant sh155, FGG-tagged, SEQ ID NO: 2, with cucurbit[8]uril 1:1, on glutaraldehyde-crosslinked chitosan); experiment: Butachlor inhibition (IC50) of immobilized FGGsh155:CB[8]; type: biochemical; conditions: immobilized on chitosan carrier vs free enzyme
Description: FIG. 21 (A-B): Dose-response inhibition curves of FGGsh155:CB[8] due to the herbicide butachlor for the determination of IC50 value. FIG. 21A. before and FIG. 21B. after immobilization. The data represent the mean±SD (N=3).
(§3) The half maximal inhibitory concentration (IC50), namely the inhibitor concentration that leads to 50% inhibition of the enzyme activity of FGGsh155:CB[8], was determined for constant substrate concentrations and varying butachlor concentrations. The utilised substrate concentrations were equal to the kinetic constant value of S0.5 for CDNB and 2.5 times the CDNB concentration for GSH. The correlation between the butachlor concentration from 0 to 600 nM (0 to 0.6 μM) and the remaining activity (%) of the immobilized enzyme was linear, thus standard curves for known herbicide concentrations were developed. The methodology was tested for drinking water samples derived from the Athens water supply network, as well as commercial mineral water (see Example 11). The results were analysed with the Graphpad Prism software.

[3] = system: FGGsh155:CB[8] hexamer (FGG-tagged phi class glutathione S-transferase GSTF mutant sh155, SEQ ID NO: 2, with cucurbit[8]uril 1:1); experiment: Kinetic inhibition analysis with butachlor, hexamer FGGsh155:CB[8]; type: biochemical; conditions: constant GSH, variable CDNB
Text: as §1, §2

[4] = biological target: T1, immobilized FGGsh155:CB[8] (Triticum aestivum, UniProt Z9G7Y6U750); experiment: Determination of butachlor in spiked water samples with the immobilized enzyme biosensor
Description: as §3
The basis for the detection of the herbicide butachlor in water samples was the determination of inhibition induced in the immobilized enzyme form. […] The linear response of inhibition of the immobilized enzyme due to butachlor was described by the equation y=−101.3x+98.07, R^2=0.991 (FIG. 23A). This observation led to the development of a methodology for determination of butachlor in drinking water samples based on the detection of inhibition as determined by a standard reference curve. Accordingly, standard curves were generated for spiked, with known concentrations of butachlor, samples of drinking water from the Athens' supply network (y=−81.84x+98.81, R^2=0.997) and bottled mineral water (y=−72.69x+99.46, R^2=0.995) (FIG. 23B). The detection range of butachlor with this methodology was determined up to 180 μg/L (600 nM) in water samples, with the acceptable amount of a pesticide in surface water at 1.0 μg/L and in drinking water at 0.1 μg/L (Council Directive 98/83/EC). The detection range up to 0.6 μM (180 μg/L) of the developed biosensor, with detection limit at approximately 31 μg/L for butachlor, achieves comparatively high sensitivity and selectivity.
The methodology was evaluated with recovery experiments of spiked drinking water samples, with known but random concentrations of butachlor within the range of the standard curve. […] The correlation between the added and found butachlor tested concentrations for network supply water (R^2 0.9993, p<0.0001) and mineral water (R^2 0.9987, p<0.0001) is depicted in FIG. 23C & 23D.

[5] = buffer; cited from earlier work
FGGsh155:CB[8] = FGGsh155:CB[8] (Triticum aestivum, UniProt Z9G7Y6U750); experiment: Inhibition of free FGGsh155:CB[8] by butachlor (IC50, kinetic inhibition analysis); type: biochemical
Description: as §3, with “The correlation between the butachlor concentration from 0 to 600 nM (0 to 0.6 μM) and the remaining activity (%) of the immobilized enzyme was linear, thus standard curves for known herbicide concentrations were developed.” left out
(§4) Kinetic analysis in presence of butachlor aimed to characterize of the type of inhibition, thus the binding site of the inhibitor, as well as to identify possible differences in kinetic behavior between the GST dimer form (sh155) and the hexamer FGGsh155:CB[8] that was used in the immobilization. […] In the mixed inhibition pattern all of the kinetic constants (Km, kcat) change, and the inhibitor is able to bind to both the free enzyme (Ki) and the enzyme-substrate complex (Ki′) with different affinities. […] This type of inhibition is a sub-case of the mixed inhibition pattern where Ki=Ki′, i.e. the velocity of the reaction is decreased without affecting the affinity with the substrate. In this inhibition type, the inhibitor and the substrate bind independently at different enzyme sites.

human lymphocytes = conditions: cited from earlier work
[6] = biological target: T1, immobilized FGGsh155:CB[8]; experiment: Inhibition of immobilized FGGsh155:CB[8] by butachlor (IC50); type: biochemical; conditions: after immobilization on the chitosan carrier
Description: as §3

sh155 = sh155 (Triticum aestivum, UniProt Z9G7Y6U750); experiment: Kinetic inhibition analysis of dimer sh155 by butachlor; type: biochemical
Text: as §4

[7] = towards CDNB (variable CDNB, constant GSH), binding to free enzyme
[8] = towards CDNB, binding to enzyme-substrate complex
[9] = towards GSH (variable GSH, constant CDNB)

For `CCCCOCN(C(=O)CCl)c1c(CC)cccc1CC` [Butachlor, 2-chloro-2,6-diethyl-N-butoxymethyl-acetanilide], the “type of inhibition towards CDNB” value [1] was “mixed type inhibition with Ki<Ki′”, the “increase in sensitivity for butachlor after immobilization (IC50 immobilized vs free enzyme)” value [2] was “ten-fold increase in sensitivity” and the “type of inhibition towards CDNB” value [3] was “mixed type inhibition with Ki<Ki′”.

`CCCCOCN(C(=O)CCl)c1c(CC)cccc1CC` [butachlor, 2-chloro-2,6-diethyl-N-butoxymethyl-acetanilide] gave a Found butachlor ([4]; Athens water supply network, added 0.05 μM) of 0.046 ± 0.003 µM, a Found butachlor ([4]; Athens water supply network, added 0.2 μM) of 0.191 ± 0.001 µM and a Found butachlor ([4]; Athens water supply network, added 0.3 μM) of 0.308 ± 0.008 µM. It also gave a Found butachlor ([4]; Athens water supply network, added 0.4 μM) of 0.416 ± 0.005 µM, a Found butachlor ([4]; Athens water supply network, added 0.6 μM) of 0.617 ± 0.003 µM and a Found butachlor ([4]; Bottled mineral water, added 0.1 μM) of 0.095 ± 0.005 µM. For the same compound, the Found butachlor ([4]; Bottled mineral water, added 0.2 μM) was 0.215 ± 0.005 µM, the Found butachlor ([4]; Bottled mineral water, added 0.3 μM) was 0.307 ± 0.005 µM and the Found butachlor ([4]; Bottled mineral water, added 0.4 μM) was 0.413 ± 0.012 µM. The Found butachlor ([4]; Bottled mineral water, added 0.55 μM) was 0.56 ± 0.010 µM, the detection limit ([4]; developed biosensor) was “approximately 31 μg/L” and the detection range ([4]; water samples) was “up to 180 μg/L and ≤ 600 nM”. For the same compound, the half-life [5] was “up to 2.5 days”, the “type of inhibition towards GSH” value (FGGsh155:CB[8]) was “non-competitive inhibition” and the “type of inhibition towards the CDNB substrate” value (FGGsh155:CB[8]) was “mixed type inhibition”. It also gave an IC50 (FGGsh155:CB[8]; free enzyme, before immobilization) of 5.14 ± 0.16 µM, a Ki (FGGsh155:CB[8]; [7]) of 4.42 µM and a Ki (FGGsh155:CB[8]; [8]) of 21.1 µM. The Ki (FGGsh155:CB[8]; [9]) was 13.2 µM, the “frequency of chromosomal abnormalities” value (human lymphocytes) was “dose-dependent increase in the frequency of chromosomal abnormalities” and the IC50 [6] was 0.56 ± 0.02 µM. For the same compound, the “type of inhibition towards GSH” value (sh155) was “non-competitive inhibition”, the “type of inhibition towards the CDNB substrate” value (sh155) was “mixed type inhibition” and the Ki (sh155; [7]) was 5.92 µM. The Ki (sh155; [8]) was 22.6 µM and the Ki (sh155; [9]) was 13.3 µM.
